Experimental data reported in ChEMBL document CHEMBL5523736, “The First Discovery of Marine Polyoxygenated Cembranolides as Potential Agents for the Treatment of Ulcerative Colitis” (J Med Chem, 2024).
Each block holds one compound with its values, some of them ahead of it. Active and inactive are the calls of the source. The rule behind the calls is not given here.

What was measured:
[1] = Cytotoxicity against mouse RAW264.7 cells assessed as cell viability at 20 uM incubated for 24 hrs by CCK8 assay relative to control; type: toxicity, cell-based; settings: read-out: Activity
RAW264.7 [2] = assay: Antiinflammatory activity in mouse RAW264.7 cells assessed as inhibition of LPS-induced NO production at 20 uM incubated for 24 hrs relative to control; type: functional
RAW264.7 [3] = assay: Antiinflammatory activity in LPS-induced mouse RAW264.7 cells assessed as reduction in IL-6 mRNA expression level at 20 uM by qRT-PCR analysis; type: functional, cell-based
RAW264.7 [4] = assay: Antiinflammatory activity in LPS-induced mouse RAW264.7 cells assessed as reduction in TNF-alpha mRNA expression level at 20 uM by qRT-PCR analysis; type: functional, cell-based
RAW264.7 [5] = assay: Antiinflammatory activity in LPS-induced mouse RAW264.7 cells assessed as reduction in IL-1beta mRNA expression level at 20 uM by qRT-PCR analysis; type: functional, cell-based
RAW264.7 [6] = assay: Antiinflammatory activity in mouse RAW264.7 cells assessed as inhibition of LPS-induced NO production incubated for 24 hrs; type: functional, cell-based; settings: RAW264.7, 24 h
RAW264.7 [7] = assay: Antiinflammatory activity in LPS-induced mouse RAW264.7 cells assessed as reduction in iNOS mRNA expression level at 20 uM by qRT-PCR analysis; type: functional, cell-based
Mus musculus [8] = assay: Antiinflammatory activity against DSS-induced ulcerative colitis C57BL/6J mouse model assessed as reduction in goblet cell loss in colon at 15 mg/kg, po administered for 8 days by alcian blue staining based analysis; type: functional, organism-based; settings: time 8.0 day
Mus musculus [9] = assay: Antiinflammatory activity against DSS-induced ulcerative colitis C57BL/6J mouse model assessed as reduction in DAI score at 15 mg/kg, po administered for 8 days; type: functional, organism-based; settings: time 8.0 day
Mus musculus [10] = assay: Antiinflammatory activity against DSS-induced ulcerative colitis C57BL/6J mouse model assessed as reduction in Ccl2 mRNA expression level in colon at 15 mg/kg, po administered for 8 days by qRT-PCR analysis; type: functional, organism-based; settings: time 8.0 day
Mus musculus [11] = assay: Antiinflammatory activity against DSS-induced ulcerative colitis C57BL/6J mouse model assessed as reduction in intestinal epithelial destruction in colon at 15 mg/kg, po administered for 8 days by Hand E staining based histopathological analysis; type: functional, organism-based; settings: time 8.0 day
Mus musculus [12] = assay: Antiinflammatory activity against DSS-induced ulcerative colitis C57BL/6J mouse model assessed as increase in […] protein level in colon at 15 mg/kg, po administered for 8 days by Western blot analysis; type: functional, organism-based; settings: time 8.0 day
RAW264.7 [13] = assay: Inhibition of ERK phosphorylation in LPS-induced mouse RAW264.7 cells at 20 uM by Western blot analysis; type: cell-based
[14] = molecular target: Transcription factor p65 (Mus musculus) (UniProt Q04207); assay: Inhibition of p65 activation in LPS-induced mouse RAW264.7 cells at 20 uM by Western blot analysis; type: cell-based
Sequence of Transcription factor p65 (Mus musculus) (Q04207 whole entry): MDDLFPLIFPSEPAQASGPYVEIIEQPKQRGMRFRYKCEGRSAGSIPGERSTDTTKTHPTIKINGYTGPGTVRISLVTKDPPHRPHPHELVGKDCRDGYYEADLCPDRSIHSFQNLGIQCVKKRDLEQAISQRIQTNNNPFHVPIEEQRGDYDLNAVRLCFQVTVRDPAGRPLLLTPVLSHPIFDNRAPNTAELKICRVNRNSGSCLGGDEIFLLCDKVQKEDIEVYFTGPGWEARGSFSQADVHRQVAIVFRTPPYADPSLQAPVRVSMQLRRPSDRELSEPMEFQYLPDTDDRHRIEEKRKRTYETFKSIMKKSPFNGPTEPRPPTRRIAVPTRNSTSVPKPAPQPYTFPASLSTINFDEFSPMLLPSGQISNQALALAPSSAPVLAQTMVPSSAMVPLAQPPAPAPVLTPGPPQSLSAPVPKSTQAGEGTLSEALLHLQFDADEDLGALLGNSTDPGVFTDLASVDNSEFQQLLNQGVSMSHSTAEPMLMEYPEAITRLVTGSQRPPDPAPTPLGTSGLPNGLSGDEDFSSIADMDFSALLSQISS

Mus musculus [15] = assay: Effect on DSS-induced body weight loss in ulcerative colitis male C57BL/6J mouse model at 15 mg/kg, po administered for 8 days; type: functional, organism-based; settings: time 8.0 day
RAW264.7 [16] = assay: Antiinflammatory activity in LPS-induced mouse RAW264.7 cells assessed as inhibition of IL-6 production at 20 uM by ELISA; type: functional, cell-based
Mus musculus [17] = assay: Antiinflammatory activity against DSS-induced ulcerative colitis C57BL/6J mouse model assessed as reduction in IL-1beta mRNA expression level in colon at 15 mg/kg, po administered for 8 days by qRT-PCR analysis; type: functional, organism-based; settings: time 8.0 day
[18] = molecular target: c-Jun N-terminal kinase (Mus musculus) (UniProt Q91Y86+Q9WTU6+Q61831); assay: Inhibition of JNK phosphorylation in LPS-induced mouse RAW264.7 cells at 20 uM by Western blot analysis; type: cell-based
Sequence of c-Jun N-terminal kinase (Mus musculus) (Q61831 whole entry, looked up): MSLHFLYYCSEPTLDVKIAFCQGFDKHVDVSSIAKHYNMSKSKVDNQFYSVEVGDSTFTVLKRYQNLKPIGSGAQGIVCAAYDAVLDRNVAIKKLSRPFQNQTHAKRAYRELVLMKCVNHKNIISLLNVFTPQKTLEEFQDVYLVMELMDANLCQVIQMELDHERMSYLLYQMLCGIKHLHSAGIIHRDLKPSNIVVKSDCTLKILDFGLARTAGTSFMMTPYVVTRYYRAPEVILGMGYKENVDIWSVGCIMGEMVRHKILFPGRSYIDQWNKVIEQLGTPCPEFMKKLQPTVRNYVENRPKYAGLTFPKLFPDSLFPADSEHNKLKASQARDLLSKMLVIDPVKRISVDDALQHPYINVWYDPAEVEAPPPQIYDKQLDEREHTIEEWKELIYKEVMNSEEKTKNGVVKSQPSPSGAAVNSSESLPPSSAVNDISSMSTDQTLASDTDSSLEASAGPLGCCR
Sequence of c-Jun N-terminal kinase (Mus musculus) (Q91Y86 whole entry, looked up): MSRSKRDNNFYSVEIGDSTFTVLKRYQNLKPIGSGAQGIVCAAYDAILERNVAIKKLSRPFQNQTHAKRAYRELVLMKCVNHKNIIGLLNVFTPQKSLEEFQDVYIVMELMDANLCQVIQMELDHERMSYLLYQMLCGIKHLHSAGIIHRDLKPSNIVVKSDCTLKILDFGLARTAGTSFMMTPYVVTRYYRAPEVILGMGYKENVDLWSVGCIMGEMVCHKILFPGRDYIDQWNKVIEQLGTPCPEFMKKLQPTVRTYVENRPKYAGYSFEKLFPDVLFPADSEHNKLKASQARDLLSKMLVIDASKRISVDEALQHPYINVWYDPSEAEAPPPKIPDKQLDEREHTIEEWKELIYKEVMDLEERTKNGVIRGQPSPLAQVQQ
Sequence of c-Jun N-terminal kinase (Mus musculus) (Q9WTU6 whole entry, looked up): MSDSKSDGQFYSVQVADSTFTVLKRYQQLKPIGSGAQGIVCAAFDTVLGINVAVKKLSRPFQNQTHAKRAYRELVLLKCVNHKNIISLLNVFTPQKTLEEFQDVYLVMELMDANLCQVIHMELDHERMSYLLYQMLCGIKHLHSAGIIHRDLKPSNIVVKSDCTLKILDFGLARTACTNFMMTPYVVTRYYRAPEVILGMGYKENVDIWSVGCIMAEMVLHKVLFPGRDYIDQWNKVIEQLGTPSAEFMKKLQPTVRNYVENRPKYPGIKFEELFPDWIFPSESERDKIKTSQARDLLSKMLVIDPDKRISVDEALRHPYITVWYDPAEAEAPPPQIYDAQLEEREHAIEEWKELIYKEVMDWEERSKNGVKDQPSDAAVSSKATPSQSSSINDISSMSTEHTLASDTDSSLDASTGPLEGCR

Mus musculus [19] = assay: Antiinflammatory activity against DSS-induced ulcerative colitis C57BL/6J mouse model assessed as increase in CLAUDIN-1 protein level in colon at 15 mg/kg, po administered for 8 days by Western blot analysis; type: functional, organism-based; settings: time 8.0 day
Mus musculus [20] = assay: Antiinflammatory activity against DSS-induced ulcerative colitis C57BL/6J mouse model assessed as reduction in H and E histopathological score at 15 mg/kg, po administered for 8 days by H and E staining based analysis; type: functional, organism-based; settings: time 8.0 day
RAW264.7 [21] = assay: Inhibition of P38 phosphorylation in LPS-induced mouse RAW264.7 cells at 20 uM by Western blot analysis; type: cell-based
Mus musculus [22] = assay: Antiinflammatory activity against DSS-induced ulcerative colitis C57BL/6J mouse model assessed as increase in OCCLUDIN protein level in colon at 15 mg/kg, po administered for 8 days by Western blot analysis; type: functional, organism-based; settings: time 8.0 day
RAW264.7 [23] = assay: Inhibition of NF-kappaB transcriptional activity in LPS-induced mouse RAW264.7 cells at 20 uM by luciferase based assay; type: cell-based
Mus musculus [24] = assay: Antiinflammatory activity against DSS-induced ulcerative colitis C57BL/6J mouse model assessed as reduction in TNF-alpha mRNA expression level in colon at 15 mg/kg, po administered for 8 days by qRT-PCR analysis; type: functional, organism-based; settings: time 8.0 day
Mus musculus [25] = assay: Antiinflammatory activity against DSS-induced ulcerative colitis C57BL/6J mouse model assessed as reduction in iNOS mRNA expression level in colon at 15 mg/kg, po administered for 8 days by qRT-PCR analysis; type: functional, organism-based; settings: time 8.0 day
RAW264.7 [26] = assay: Antiinflammatory activity in LPS-induced mouse RAW264.7 cells assessed as inhibition of TNF-alpha production at 20 uM by ELISA; type: functional, cell-based
Mus musculus [27] = assay: Antiinflammatory activity against DSS-induced ulcerative colitis C57BL/6J mouse model assessed as reduction in inflammatory cell infiltration in colon at 15 mg/kg, po administered for 8 days by Hand E staining based histopathological analysis; type: functional, organism-based; settings: time 8.0 day

Structure (SMILES): C=C1C(=O)O[C@]2(C)CC[C@@H]1C[C@@H]1O[C@@]1(C)C/C=C/[C@@](C)(OO)CCC2=O
viability at 24 h, 20 µM [1]: 93.7% | inhibition at 20 µM (RAW264.7 [2]): 48.7%

Structure (SMILES): C=C(C(=O)OC)[C@@H]1C/C=C(/C)[C@@H](O)CC/C(C)=C/CC[C@]2(C)O[C@H]2C1
viability at 24 h, 20 µM [1]: 93.7% | inhibition at 20 µM (RAW264.7 [2]): 79.3%

Structure (SMILES): C=C(C(=O)OC)[C@@H]1CC[C@@](C)(O)C(=O)CC[C@](C)(O)/C=C/C[C@]2(C)O[C@H]2C1
viability at 24 h, 20 µM [1]: 98.1% | inhibition at 20 µM (RAW264.7 [2]): 29.1%

Structure (SMILES): C=C(C(=O)OC)[C@@H]1CC[C@@](C)(O)C(=O)CC/C(C)=C/CC[C@]2(C)O[C@H]2C1
viability at 24 h, 20 µM [1]: 116% | inhibition at 20 µM (RAW264.7 [2]): 35.7%

Structure (SMILES): C=C1C(=O)O[C@]2(C)CC[C@@H]1C[C@@H]1O[C@@]1(C)CC[C@H](OC(C)=O)[C@@]1(C)CC[C@@H]2O1
viability at 24 h, 20 µM [1]: 103% | inhibition at 20 µM (RAW264.7 [2]): 36.7%

Structure (SMILES): C=C1CO[C@]2(C)CC[C@@H]1C[C@]1(O)O[C@@]1(C)CC/C=C(\C)CC[C@@H]2O
viability at 24 h, 20 µM [1]: 82.3% | inhibition at 20 µM (RAW264.7 [2]): -146%

Structure (SMILES): C=C(C(=O)OC)[C@@H]1CC[C@@](C)(O)[C@@H](OC(C)=O)CC/C(C)=C/CC[C@]2(C)O[C@H]2C1
viability at 24 h, 20 µM [1]: 104% | inhibition at 20 µM (RAW264.7 [2]): -4.67%

IC50 (RAW264.7 [6]): 3610 nM
Structure (SMILES): C=C1C(=O)O[C@]2(C)CC[C@@H]1C[C@@H]1O[C@@]1(C)CC/C=C(\C)CC[C@@H]2O [SINULARIOLIDE]
Activity (RAW264.7 [3]): Active | Activity (RAW264.7 [4]): Active | Activity (RAW264.7 [5]): Active | viability at 24 h, 20 µM [1]: 83.3% | inhibition at 20 µM (RAW264.7 [2]): 108% | Activity (RAW264.7 [7]): Active

Structure (SMILES): C=C1C(=O)O[C@]2(C)CC[C@@H]1C[C@H](O)[C@@]1(C)CC[C@H](O1)[C@](C)(O)CCC2=O
viability at 24 h, 20 µM [1]: 102% | inhibition at 20 µM (RAW264.7 [2]): 43%

inhibition [14]: Active | inhibition [18]: Active | IC50 (RAW264.7 [6]): 1150 nM
Structure (SMILES): C=C1C(=O)O[C@]2(C)CC[C@@H]1C[C@@H]1O[C@@]1(C)CC/C=C(\C)CC[C@H]2OC(C)=O
Activity (Mus musculus [8]): Active | Activity (Mus musculus [9]): Active | Activity (Mus musculus [10]): Active | Activity (RAW264.7 [3]): Active | Activity (Mus musculus [11]): Active | Activity (Mus musculus [12]): Active | inhibition (RAW264.7 [13]): Active | Activity (Mus musculus [15]): inactive | Activity (RAW264.7 [4]): Active | Activity (RAW264.7 [16]): Active | Activity (Mus musculus [17]): Active | Activity (Mus musculus [19]): Active | Activity (Mus musculus [20]): Active | inhibition (RAW264.7 [21]): inactive | Activity (RAW264.7 [5]): Active | Activity (Mus musculus [22]): Active | viability at 24 h, 20 µM [1]: 89% | inhibition (RAW264.7 [23]): Active | Activity (Mus musculus [24]): Active | Activity (Mus musculus [25]): Active | inhibition at 20 µM (RAW264.7 [2]): 139% | Activity (RAW264.7 [7]): Active | Activity (RAW264.7 [26]): Active | Activity (Mus musculus [27]): Active

Structure (SMILES): C=C1C(=O)O[C@]2(C)CC[C@@H]1C[C@H](O)[C@@]1(C)CC/C=C(/CCC2=O)COO1
viability at 24 h, 20 µM [1]: 94.5% | inhibition at 20 µM (RAW264.7 [2]): 34.4%

Structure (SMILES): C=C1C(=O)O[C@]2(C)CC[C@@H]1C[C@H](O)[C@@]1(C)CC[C@H](O1)C(=C)CC[C@H]2O
viability at 24 h, 20 µM [1]: 89% | inhibition at 20 µM (RAW264.7 [2]): 39%

IC50 (RAW264.7 [6]): 31700 nM
Structure (SMILES): CNC(=N)NCCC[C@H](N)C(=O)O [TILARGININE]
viability at 24 h, 20 µM [1]: 92.7% | inhibition at 20 µM (RAW264.7 [2]): 27.4%

Structure (SMILES): C=C1C(=O)O[C@]2(C)CC[C@@H]1C[C@H]1O[C@@]1(C)C/C=C/[C@](C)(OO)CC[C@H]2O
Activity (RAW264.7 [3]): Active | Activity (RAW264.7 [4]): Active | Activity (RAW264.7 [5]): Active | viability at 24 h, 20 µM [1]: 108% | IC50 (RAW264.7 [6]): 840 nM | inhibition at 20 µM (RAW264.7 [2]): 124% | Activity (RAW264.7 [7]): Active

Structure (SMILES): C=C1C(=O)O[C@]2(C)CC[C@@H]1C[C@H](O)[C@@]1(C)CC[C@H](O1)C(=C)CC[C@H]2OC(C)=O [GRANOSOLIDE A]
viability at 24 h, 20 µM [1]: 88.7% | inhibition at 20 µM (RAW264.7 [2]): 31%
